Reference: paper PMC12491383, “Organ and tumour dosimetry of ^177Lu-rhPSMA-10.1, a novel PSMA-targeted therapy: results from a Phase I trial” (European Journal of Nuclear Medicine and Molecular Imaging, 2025)

Assay: SPECT/CT image-based normal organ dosimetry (MIRD S-value methodology), Phase I BET-PSMA-121
Format: in vivo, human
Conditions: for Cumulative Absorbed Dose, Bone Marrow, % of dose limit / Cumulative Absorbed Dose, Kidney, % of dose limit / Cumulative Absorbed Dose, Salivary Glands, % of dose limit / Cumulative Absorbed Dose, Bone Marrow / Cumulative Absorbed Dose, Kidney / Cumulative Absorbed Dose, Salivary Glands: Cohort B; for Cumulative Absorbed Dose, Bone Marrow, % of dose limit: limit 2 Gy; for Cumulative Absorbed Dose, Salivary Glands, % of dose limit: limit 24 Gy
Source text: Figure 1 provides a schematic representation of the study. Enrolled patients were sequentially entered into one of the two cohorts. Cohort A received 5.55 GBq (150 mCi) of ^177Lu-rhPSMA-10.1 and Cohort B received 7.40 GBq (200 mCi) of ^177Lu-rhPSMA-10.1. Subsequent doses were delivered at 6-week intervals subject to individual tolerability and safety assessments. Each patient received between one and three cycles, with a maximum of three cycles of treatment being permitted in this initial part of the study. All administrations of ^177Lu-rhPSMA-10.1 were performed using intravenous injection under the supervision of the treating physician.
Multi-bed single-photon emission computed tomography (SPECT)/CT was conducted at 3-, 24-, 48- and 168-hours post-^177Lu-rhPSMA-10.1 administration in each treatment cycle for the estimation of organ and tumour absorbed doses in each patient. Prior to commencement of the study, each investigating site was required to complete a calibration of their dose calibrator and SPECT/CT system to ensure harmonised quantification of the imaging data. Quantitative reconstructions and all dosimetry analyses were carried out centrally by an independent dosimetry vendor (Radiopharmaceutical Imaging and Dosimetry LLC, Baltimore, MD).
The specific absorbed doses (Gy/GBq) in normal organs and tumours were determined using the Medical Internal Radiation Dose (MIRD) Committee S-value methodology. Individual patient organ masses, determined via CT delineation, were scaled to reflect deviations from reference phantom geometry. Cumulative organ absorbed doses (Gy) were calculated across all treatment cycles. Further details on dosimetry methodology are provided in the supplemental materials and have been reported in accordance with EANM guidance.
All patients underwent multi-bed single-photon emission computed tomography (SPECT)/CT at 3-, 24-, 48- and 168-hours post-^177Lu-rhPSMA-10.1 administration during each treatment cycle. The acquisition parameters are shown in Supplemental Table S1. All images were centrally reconstructed in 3D-RD-S using the iterative Ordered Subsets Expectation-Maximization (OSEM) algorithm with 40 iterations and 5 subsets. Attenuation, scatter, and the Collimator-Detector Response Function (CDRF) were modelled during the iterative process using a rotation-based projector. CT-based attenuation compensation was performed using the attenuation map generated from the CT image. Scatter was modelled using the Effective Source Scatter Estimation (ESSE) method.
Reconstructed images were converted to activity concentration units (Becquerel (Bq)/millilitre (mL)) using the calibration factor generated for each individual imaging system. Organ masses were individually determined using CT-based delineations and longitudinal SPECT activity statistics were based on these same delineations.
Time integrated activity coefficients (TIACs) were calculated for each target tissue. This was done by fitting each time–activity curve with an exponential function (mono, bi, or exponential uptake and washout) and integrating from time 0 to infinity. The simpler function was preferred provided the fit was adequate ([…]).
The TIAC in the bone marrow was derived from contours drawn around the marrow inside lumbar vertebrae L3–L5. Where lesions were present in the lumbar area, contours were drawn around either the femur heads, scapula or sternum depending on the anatomical coverage. The TIAC was then divided by the marrow mass in this region to give the TIAC concentration. The total bone marrow TIAC was be obtained as the product of this concentration and the standard International Commission on Radiological Protection (ICRP) bone marrow mass.
The S-value methodology was used to estimate the target tissue dose. […]

[1] = Patient 4, 3 cycles, 22.94 GBq cumulative
[2] = Patient 5, 3 cycles, 22.29 GBq cumulative
[3] = Patient 6, 3 cycles, 22.59 GBq cumulative
[4] = Patient 7, 3 cycles, 22.29 GBq cumulative
[5] = Patient 8, 3 cycles, 22.86 GBq cumulative
[6] = Patient 9, 3 cycles, 22.10 GBq cumulative
[7] = Patient 10, 3 cycles, 23.30 GBq cumulative
[8] = Patient 11, 1 cycle, 7.80 GBq cumulative
[9] = Patient 12, 1 cycle, 7.46 GBq cumulative
[10] = Patient 13, 3 cycles, 22.23 GBq cumulative

## CC(C)(C)[Si](F)(c1ccc(C(=O)NC[C@@H](NC(=O)CN2CCN(CC(=O)[O-])CCN(CC(=O)[O-])CCN(CC(=O)[O-])CC2)C(=O)N[C@H](CCCCNC(=O)CCC(=O)NCCC[C@@H](NC(=O)CC[C@H](NC(=O)N[C@@H](CCC(=O)O)C(=O)O)C(=O)O)C(=O)O)C(=O)O)cc1)C(C)(C)C.[177Lu+3] [^177Lu-rhPSMA-10.1]
[1]
  Cumulative Absorbed Dose, Bone Marrow, % of dose limit: 6.5%
  Cumulative Absorbed Dose, Salivary Glands, % of dose limit: 12%
Patient 4, 3 cycles, 22.94 GBq cumulative, limit 23 Gy
  Cumulative Absorbed Dose, Kidney, % of dose limit: 36%
[2]
  Cumulative Absorbed Dose, Bone Marrow: 0.07 Gy
  Cumulative Absorbed Dose, Kidney: 6.25 Gy
  Cumulative Absorbed Dose, Salivary Glands: 2.85 Gy
  Cumulative Absorbed Dose, Bone Marrow, % of dose limit: 3.5%
  Cumulative Absorbed Dose, Salivary Glands, % of dose limit: 12%
Patient 5, 3 cycles, 22.29 GBq cumulative, limit 23 Gy
  Cumulative Absorbed Dose, Kidney, % of dose limit: 27%
[3]
  Cumulative Absorbed Dose, Bone Marrow: 0.42 Gy
  Cumulative Absorbed Dose, Kidney: 7.31 Gy
  Cumulative Absorbed Dose, Salivary Glands: 2.87 Gy
  Cumulative Absorbed Dose, Bone Marrow, % of dose limit: 21%
  Cumulative Absorbed Dose, Salivary Glands, % of dose limit: 12%
Patient 6, 3 cycles, 22.59 GBq cumulative, limit 23 Gy
  Cumulative Absorbed Dose, Kidney, % of dose limit: 32%
[4]
  Cumulative Absorbed Dose, Bone Marrow: 0.05 Gy
  Cumulative Absorbed Dose, Kidney: 4.02 Gy
  Cumulative Absorbed Dose, Salivary Glands: 2.88 Gy
  Cumulative Absorbed Dose, Bone Marrow, % of dose limit: 2.5%
  Cumulative Absorbed Dose, Salivary Glands, % of dose limit: 12%
Patient 7, 3 cycles, 22.29 GBq cumulative, limit 23 Gy
  Cumulative Absorbed Dose, Kidney, % of dose limit: 17%
[5]
  Cumulative Absorbed Dose, Bone Marrow: 0.24 Gy
  Cumulative Absorbed Dose, Kidney: 5.18 Gy
  Cumulative Absorbed Dose, Salivary Glands: 1.17 Gy
  Cumulative Absorbed Dose, Bone Marrow, % of dose limit: 12%
  Cumulative Absorbed Dose, Salivary Glands, % of dose limit: 4.9%
Patient 8, 3 cycles, 22.86 GBq cumulative, limit 23 Gy
  Cumulative Absorbed Dose, Kidney, % of dose limit: 23%
[6]
  Cumulative Absorbed Dose, Bone Marrow: 0.05 Gy
  Cumulative Absorbed Dose, Kidney: 5.18 Gy
  Cumulative Absorbed Dose, Salivary Glands: 2.00 Gy
  Cumulative Absorbed Dose, Bone Marrow, % of dose limit: 2.5%
  Cumulative Absorbed Dose, Salivary Glands, % of dose limit: 8.3%
Patient 9, 3 cycles, 22.10 GBq cumulative, limit 23 Gy
  Cumulative Absorbed Dose, Kidney, % of dose limit: 23%
[7]
  Cumulative Absorbed Dose, Bone Marrow: 0.03 Gy
  Cumulative Absorbed Dose, Kidney: 4.29 Gy
  Cumulative Absorbed Dose, Salivary Glands: 0.82 Gy
  Cumulative Absorbed Dose, Bone Marrow, % of dose limit: 1.5%
  Cumulative Absorbed Dose, Salivary Glands, % of dose limit: 3.4%
Patient 10, 3 cycles, 23.30 GBq cumulative, limit 23 Gy
  Cumulative Absorbed Dose, Kidney, % of dose limit: 19%
[8]
  Cumulative Absorbed Dose, Bone Marrow: 0.23 Gy
  Cumulative Absorbed Dose, Kidney: 1.52 Gy
  Cumulative Absorbed Dose, Salivary Glands: 0.88 Gy
  Cumulative Absorbed Dose, Bone Marrow, % of dose limit: 11%
  Cumulative Absorbed Dose, Salivary Glands, % of dose limit: 3.7%
Patient 11, 1 cycle, 7.80 GBq cumulative, limit 23 Gy
  Cumulative Absorbed Dose, Kidney, % of dose limit: 6.6%
[9]
  Cumulative Absorbed Dose, Bone Marrow: 0.04 Gy
  Cumulative Absorbed Dose, Kidney: 1.71 Gy
  Cumulative Absorbed Dose, Salivary Glands: 0.79 Gy
  Cumulative Absorbed Dose, Bone Marrow, % of dose limit: 2.0%
  Cumulative Absorbed Dose, Salivary Glands, % of dose limit: 3.3%
Patient 12, 1 cycle, 7.46 GBq cumulative, limit 23 Gy
  Cumulative Absorbed Dose, Kidney, % of dose limit: 7.4%
[10]
  Cumulative Absorbed Dose, Bone Marrow: 0.05 Gy
  Cumulative Absorbed Dose, Kidney: 4.63 Gy
  Cumulative Absorbed Dose, Salivary Glands: 3.40 Gy
  Cumulative Absorbed Dose, Bone Marrow, % of dose limit: 2.5%
  Cumulative Absorbed Dose, Salivary Glands, % of dose limit: 14%
Patient 13, 3 cycles, 22.23 GBq cumulative, limit 23 Gy
  Cumulative Absorbed Dose, Kidney, % of dose limit: 20%
All patients, both dosing cohorts
  Cumulative absorbed doses versus historical EBRT organ dose limits: below the historical external beam radiation therapy (EBRT) organ dose limits
At 7.4 GBq per cycle, range across the 13 patients
  Equivalent number of treatment cycles to reach the EBRT kidney dose limit of 23 Gy: 6–17 cycles
Limit 23 Gy, maximum of three cycles
  Cumulative absorbed dose to the kidney as % of the EBRT dose limit, highest reached: ≤ 36%
